# Assay results as given in patent publication US20230058623A1, “NOVEL HETEROARYL-TRIAZOLE COMPOUNDS AS PESTICIDES” (Bayer Aktiengesellschaft, priority 2019, published 2023).
# Columns and labels:
# Type in all cases: in vivo
# [1] = test system: adult engorged female ticks (Rhipicephalus microplus); experiment: Rhipicephalus (Boophilus) microplus injection test; conditions: 168 h, application rate 4 μg/tick, egg deposition after 7 days, read-out: activity (efficacy: infertile eggs)
# Procedure, shortened: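 Efficacy is scored from egg fertility, with 100% meaning every egg infertile and 0% every egg fertile. Five engorged females per test received 1 μL DMSO solution abdominally. Eggs of unclear fertility were kept until hatching, about 42 days.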
# [2] = test system: adult cat fleas (Ctenocephalides felis); experiment: Ctenocephalides felis in-vitro contact test, adult cat flea; conditions: application rate 5 μg/cm^2 (=500 g/ha), after 48 hours, read-out: activity (efficacy: fleas dead or moribund)
# Procedure, shortened: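 Acetone solutions of compound were coated onto inner walls of glass tubes (900 ppm giving 5 μg/cm^2) and dried; 5-10 adult C. felis were then held 48 h at room temperature. Efficacy = % fleas dead or moribund, judged by inability to escape a 45-50° C heating plate within 5 min.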
# [3] = test system: green peach aphid (Myzus persicae); experiment: Myzus persicae oral test; conditions: 120 h, read-out: activity (mortality)
# Procedure, shortened: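 Compound was dissolved at 1 part by weight in 100 parts acetone, then diluted with water to test concentration and combined with IPL41 insect medium (33%+15% sugar). A mixed aphid population fed on this through a parafilm seal, and mortality (%) was scored after 5 days.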
# [4] = test system: fall armyworm larvae (Spodoptera frugiperda); experiment: Spodoptera frugiperda spray test; conditions: 168 h, application rate 100 g/ha, after 7 days, maize leaf sections
# Procedure, shortened: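 Caterpillars are placed on sprayed, dried maize leaf sections. Sprays contain compound diluted in water with emulsifier at 1000 ppm; mortality in % is determined 7 days later.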
# [5] = test system: cattle ticks (Rhipicephalus microplus) strain Parkhurst, SP-resistant; experiment: Rhipicephalus (Boophilus) microplus dip test; conditions: 168 h, application rate 100 ppm, egg deposition after 7 days, read-out: activity (efficacy: infertile eggs)
# Protocol: Rhipicephalus (Boophilus) microplus—Dip Test
# Test animal: cattle ticks (Rhipicephalus microplus) strain Parkhurst, SP-resistant
# Solvent: dimethyl sulfoxide
# To produce a suitable preparation of active compound, 10 mg of active compound are dissolved in 0.5 mL solvent, and the concentrate is diluted with water to the desired concentration.
# This compound solution is pipetted into tubes. 8-10 engorged, adult, female cattle ticks (Rhipicephalus microplus) are placed in perforated tubes. These tubes are immersed in the aqueous compound solution until the ticks are completely moistened. After the liquid has drained off, the ticks are transferred to a filter paper in a plastic tray and stored in a climate chamber.
# After 7 days egg deposition of fertile eggs is monitored. Eggs where fertility is not visible are stored in a climate chamber till hatching after about 42 days. An efficacy of 100% means all eggs are infertile; 0% means all eggs are fertile.
# [6] = test system: brown planthopper (Nilaparvata lugens); experiment: Nilaparvata lugens spray test; conditions: 96 h, application rate 100 g/ha, after 4 days, rice plants
# Procedure, shortened: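 Rice plants sprayed with compound diluted in water containing 1000 ppm emulsifier, then infested with brown planthopper. Mortality (%) scored after 4 days, 100% meaning all insects killed.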
# [7] = test system: adult mosquitoes Anopheles funestus strain FUMOZ-R; experiment: Anopheles funestus test (ANPHFU surface treatment & contact assay); conditions: 24 hours after contact, read-out: efficacy (mortality); for mortality at 20 mg/m2: surface concentration 20 mg/m^2, exposure 30 minutes; for mortality at 4 mg/m2: surface concentration 4 mg/m^2, exposure 30 minutes
# Protocol: Anopheles funestus Test (ANPHFU Surface Treatment & Contact Assay)
# (§1) Solvent: Aceton+2000 ppm rapeseed oil methyl ester (RME)
# (§2) In order to produce a sufficient, active ingredient containing solution it is necessary to solve the test compound in the solvent-mix (acetone at 2 mg/ml/RME 2000 ppm). This solution is pipetted onto a glazed tile and after evaporation of the acetone, adult mosquitoes of the species Anopheles funestus strain FUMOZ-R (Hunt et al., Med. Vet. Entomol. 2005 September; 19(3): 271-275) are placed onto the dried surface. The exposure time is 30 minutes.
# (§3) Mortality in percent (%) is determined 24 hours after contact of the insects to the treated surface. 100% mortality means that all tested insects are dead, whereas 0% means that no insect died.
# [8] = test system: adult mosquitoes Culex quinquefasciatus strain P00; experiment: Culex quinquefasciatus test (CULXFA surface treatment & contact assay); conditions: surface concentration 20 mg/m^2, exposure 30 minutes, 24 hours after contact, read-out: efficacy (mortality)
# Protocol: Culex quinquefasciatus Test (CULXFA Surface Treatment & Contact Assay)
# as §1
# as §2, with “2 000” for “2000”, “Culex quinquefasciatus” for “Anopheles funestus”, “P00” for “FUMOZ-R (Hunt et al., Med. Vet. Entomol. 2005 September; 19(3): 271-275)”
# as §3
SMILES,pest or weed control at 0.004 mg [1] [%],pest or weed control at 5 µg/cm2 [2] [%],mortality at 4 ppm [3] [%],mortality at 100 g/ha [4] [%],pest or weed control at 100 ppm [5] [%],mortality at 100 g/ha [6] [%],mortality at 20 mg/m2 [7] [%],mortality at 4 mg/m2 [7] [%],mortality at 20 mg/m2 [8] [%]
Cc1nc([C@H](C)NC(=O)c2cc(C(F)(F)F)cc(C(F)(F)F)c2)n(-c2ncc(C(=O)N3CCOCC3)s2)n1 [Example I-4],100,80,100,100,–,–,–,–,–
COC1CCCN(C(=O)c2ccc(-n3ncnc3[C@H](C)NC(=O)c3cc(C(F)(F)F)cc(C(F)(F)F)c3)nc2)C1 (stereo partly drawn) [Example I-8],100,100,100,100,80,90,–,–,–
COC1CN(C(=O)c2ccc(-n3ncnc3[C@H](C)NC(=O)c3cc(C(F)(F)F)cc(C(F)(F)F)c3)nc2)C1 [Example I-15],100,100,100,100,100,–,–,–,–
Cc1nc([C@H](C)NC(=O)c2cc(Cl)cc(C(F)(F)F)c2)n(-c2ccc(C(=O)N3CC(C)OC(C)C3)cn2)n1 (stereo partly drawn) [Example I-29],100,100,100,83,–,–,–,–,–
C[C@@H]1CN(C(=O)c2ccc(-n3ncnc3[C@H](C)NC(=O)c3cc(Cl)cc(C(F)(F)F)c3)nc2)C[C@H](C)O1 [Example I-31],100,100,100,100,–,–,–,–,–
C[C@H](NC(=O)c1cc(Cl)cc(C(F)(F)F)c1)c1ncnn1-c1ccc(C(=O)N2CCS(=O)(=O)CC2)cn1 [Example I-35],100,100,100,–,–,100,80 to 100,–,–
C[C@H](NC(=O)c1cc(Cl)cc(C(F)(F)F)c1)c1ncnn1-c1ccc(C(=O)N2CCSCC2)cn1 [Example I-36],100,100,100,–,–,100,80 to 100,80 to 100,–
Cc1nc([C@H](C)NC(=O)c2cc(C(F)(F)F)cc(C(F)(F)F)c2)n(-c2ccc(C(=O)N3C[C@@H](C)O[C@@H](C)C3)cn2)n1 [Example I-45],100,100,100,100,80,–,–,–,–
C[C@@H]1CN(C(=O)c2ccc(-n3ncnc3[C@H](C)NC(=O)c3cc(C(F)(F)F)cc(C(F)(F)F)c3)nc2)C[C@@H](C)O1 [Example I-46],100,100,100,100,100,–,–,–,–
C[C@@H]1CN(C(=O)c2ccc(-n3ncnc3[C@H](C)NC(=O)c3cc(C(F)(F)F)cc(C(F)(F)F)c3)nc2)CCO1 [Example I-69],–,100,100,100,–,–,80 to 100,80 to 100,80 to 100
C[C@H](NC(=O)c1cc(C(F)(F)F)cc(C(F)(F)F)c1)c1ncnn1-c1ccc(C(=O)N2C[C@H](C)O[C@@H](C)C2)cn1 [Example I-94],100,100,–,100,100,90,–,–,–
C[C@@H]1CN(C(=O)c2ccc(-n3ncnc3[C@H](C)NC(=O)c3cc(OC(F)(F)F)cc(C4CC4)c3)nc2)C[C@H](C)O1 [Example I-114],100,100,100,100,100,–,–,–,–
